{"source": "the supplement of paper PMC10307832", "data": [{"compound": "O=C(Nc1cc(C(F)(F)F)cc(C(F)(F)F)c1)c1cc(Cl)ccc1O [IMD-0354] + Cc1nc(Nc2ncc(C(=O)Nc3c(C)cccc3Cl)s2)cc(N2CCN(CCO)CC2)n1 [Dasatinib] (partner 0.075 µM)", "assay": "relative viability (nuclei count vs DMSO), 5 days (fraction); higher = more cells survive", "conditions": "first compound 0.04 µM", "in_short": "(§1)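 Lung cancer cell lines, seeded in 1536-well plates, were treated the following day by pin tool with a single drug or with five library-drug doses (not always all listed) in √10 steps on top of a fixed anchor-drug dose. Cells were fixed and nuclei stained in one step after 5 days, and nuclei were counted. Relative viability is the nuclei count for treated wells divided by that for vehicle wells, reported as medians of duplicate plates.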", "values": [{"cell line": "NCI-H1395", "relative viability": 0.432}, {"cell line": "NCI-H2087", "relative viability": 0.828}, {"cell line": "NCI-H2342", "relative viability": 0.329}, {"cell line": "LK-2", "relative viability": 0.291}, {"cell line": "NCI-H358", "relative viability": 0.148}, {"cell line": "SW 900", "relative viability": 0.51}, {"cell line": "NCI-H1793", "relative viability": 0.399}, {"cell line": "NCI-H1792", "relative viability": 0.906}, {"cell line": "NCI-H1944", "relative viability": 0.21}, {"cell line": "NCI-H1563", "relative viability": 0.482}, {"cell line": "NCI-H2170", "relative viability": 0.577}, {"cell line": "ABC-1", "relative viability": 0.67}, {"cell line": "SK-MES-1", "relative viability": 0.437}]}, {"compound": "O=C(Nc1cc(C(F)(F)F)cc(C(F)(F)F)c1)c1cc(Cl)ccc1O [IMD-0354] + Cc1nc(Nc2ncc(C(=O)Nc3c(C)cccc3Cl)s2)cc(N2CCN(CCO)CC2)n1 [Dasatinib] (partner 0.075 µM)", "assay": "relative viability (nuclei count vs DMSO), 5 days (fraction); higher = more cells survive", "conditions": "first compound 0.1265 µM", "in_short": "as §1", "values": [{"cell line": "NCI-H522", "relative viability": 0.904}, {"cell line": "NCI-H1623", "relative viability": 0.52}, {"cell line": "NCI-H727", "relative viability": 0.4}, {"cell line": "NCI-H1650", "relative viability": 0.33}, {"cell line": "NCI-H1993", "relative viability": 0.652}, {"cell line": "SK-LU-1", "relative viability": 0.188}, {"cell line": "NCI-H838", "relative viability": 0.321}, {"cell line": "LCLC-103H", "relative viability": 0.487}, {"cell line": "NCI-H520", "relative viability": 0.185}, {"cell line": "NCI-H2126", "relative viability": 0.666}, {"cell line": "EMC-BAC-2", "relative viability": 0.313}, {"cell line": "NCI-H2085", "relative viability": 0.241}, {"cell line": "HCC-366", "relative viability": 0.792}, {"cell line": "NCI-H1666", "relative viability": 0.912}, {"cell line": "NCI-H596", "relative viability": 0.608}, {"cell line": "NCI-H1395", "relative viability": 0.47}, {"cell line": "NCI-H2087", "relative viability": 0.896}, {"cell line": "NCI-H2342", "relative viability": 0.326}, {"cell line": "LK-2", "relative viability": 0.288}, {"cell line": "NCI-H358", "relative viability": 0.193}, {"cell line": "SW 900", "relative viability": 0.492}, {"cell line": "NCI-H1793", "relative viability": 0.413}, {"cell line": "NCI-H1792", "relative viability": 0.69}, {"cell line": "NCI-H1944", "relative viability": 0.212}, {"cell line": "NCI-H1563", "relative viability": 0.462}, {"cell line": "NCI-H2170", "relative viability": 0.737}, {"cell line": "ABC-1", "relative viability": 0.673}, {"cell line": "SK-MES-1", "relative viability": 0.307}]}, {"compound": "O=C(Nc1cc(C(F)(F)F)cc(C(F)(F)F)c1)c1cc(Cl)ccc1O [IMD-0354] + Cc1nc(Nc2ncc(C(=O)Nc3c(C)cccc3Cl)s2)cc(N2CCN(CCO)CC2)n1 [Dasatinib] (partner 0.075 µM)", "assay": "relative viability (nuclei count vs DMSO), 5 days (fraction); higher = more cells survive", "conditions": "first compound 0.4 µM", "in_short": "as §1", "values": [{"cell line": "NCI-H522", "relative viability": 0.556}, {"cell line": "NCI-H1623", "relative viability": 0.499}, {"cell line": "NCI-H727", "relative viability": 0.326}, {"cell line": "NCI-H1650", "relative viability": 0.183}, {"cell line": "NCI-H1993", "relative viability": 0.448}, {"cell line": "SK-LU-1", "relative viability": 0.154}, {"cell line": "NCI-H838", "relative viability": 0.256}, {"cell line": "LCLC-103H", "relative viability": 0.311}, {"cell line": "NCI-H520", "relative viability": 0.186}, {"cell line": "NCI-H2126", "relative viability": 0.387}, {"cell line": "EMC-BAC-2", "relative viability": 0.235}, {"cell line": "NCI-H2085", "relative viability": 0.298}, {"cell line": "HCC-366", "relative viability": 0.382}, {"cell line": "NCI-H1666", "relative viability": 0.651}, {"cell line": "NCI-H596", "relative viability": 0.435}, {"cell line": "NCI-H1395", "relative viability": 0.385}, {"cell line": "NCI-H2087", "relative viability": 0.312}, {"cell line": "NCI-H2342", "relative viability": 0.236}, {"cell line": "LK-2", "relative viability": 0.309}, {"cell line": "NCI-H358", "relative viability": 0.139}, {"cell line": "SW 900", "relative viability": 0.462}, {"cell line": "NCI-H1793", "relative viability": 0.241}, {"cell line": "NCI-H1792", "relative viability": 0.545}, {"cell line": "NCI-H1944", "relative viability": 0.22}, {"cell line": "NCI-H1563", "relative viability": 0.422}, {"cell line": "NCI-H2170", "relative viability": 0.408}, {"cell line": "ABC-1", "relative viability": 0.279}, {"cell line": "SK-MES-1", "relative viability": 0.396}]}, {"compound": "O=C(Nc1cc(C(F)(F)F)cc(C(F)(F)F)c1)c1cc(Cl)ccc1O [IMD-0354] + Cc1nc(Nc2ncc(C(=O)Nc3c(C)cccc3Cl)s2)cc(N2CCN(CCO)CC2)n1 [Dasatinib] (partner 0.075 µM)", "assay": "relative viability (nuclei count vs DMSO), 5 days (fraction); higher = more cells survive", "conditions": "first compound 1.265 µM", "in_short": "as §1", "values": [{"cell line": "NCI-H522", "relative viability": 0.573}, {"cell line": "NCI-H1623", "relative viability": 0.24}, {"cell line": "NCI-H727", "relative viability": 0.256}, {"cell line": "NCI-H1650", "relative viability": 0.142}, {"cell line": "NCI-H1993", "relative viability": 0.543}, {"cell line": "SK-LU-1", "relative viability": 0.139}, {"cell line": "NCI-H838", "relative viability": 0.239}, {"cell line": "LCLC-103H", "relative viability": 0.232}, {"cell line": "NCI-H520", "relative viability": 0.132}, {"cell line": "NCI-H2126", "relative viability": 0.216}, {"cell line": "EMC-BAC-2", "relative viability": 0.19}, {"cell line": "NCI-H2085", "relative viability": 0.195}, {"cell line": "HCC-366", "relative viability": 0.221}, {"cell line": "NCI-H1666", "relative viability": 0.345}, {"cell line": "NCI-H596", "relative viability": 0.63}, {"cell line": "NCI-H1395", "relative viability": 0.372}, {"cell line": "NCI-H2087", "relative viability": 0.122}, {"cell line": "NCI-H2342", "relative viability": 0.312}, {"cell line": "LK-2", "relative viability": 0.224}, {"cell line": "NCI-H358", "relative viability": 0.103}, {"cell line": "SW 900", "relative viability": 0.0924}, {"cell line": "NCI-H1793", "relative viability": 0.16}, {"cell line": "NCI-H1792", "relative viability": 0.406}, {"cell line": "NCI-H1944", "relative viability": 0.167}, {"cell line": "NCI-H1563", "relative viability": 0.367}, {"cell line": "NCI-H2170", "relative viability": 0.335}, {"cell line": "ABC-1", "relative viability": 0.165}, {"cell line": "SK-MES-1", "relative viability": 0.126}]}, {"compound": "O=C(Nc1cc(C(F)(F)F)cc(C(F)(F)F)c1)c1cc(Cl)ccc1O [IMD-0354] + Cc1nc(Nc2ncc(C(=O)Nc3c(C)cccc3Cl)s2)cc(N2CCN(CCO)CC2)n1 [Dasatinib] (partner 0.075 µM)", "assay": "relative viability (nuclei count vs DMSO), 5 days (fraction); higher = more cells survive", "conditions": "first compound 4 µM", "in_short": "as §1", "values": [{"cell line": "NCI-H522", "relative viability": 0.404}, {"cell line": "NCI-H1623", "relative viability": 0.348}, {"cell line": "NCI-H727", "relative viability": 0.314}, {"cell line": "NCI-H1650", "relative viability": 0.137}, {"cell line": "NCI-H1993", "relative viability": 0.51}, {"cell line": "SK-LU-1", "relative viability": 0.134}, {"cell line": "NCI-H838", "relative viability": 0.214}, {"cell line": "LCLC-103H", "relative viability": 0.201}, {"cell line": "NCI-H520", "relative viability": 0.163}, {"cell line": "NCI-H2126", "relative viability": 0.237}, {"cell line": "EMC-BAC-2", "relative viability": 0.218}, {"cell line": "NCI-H2085", "relative viability": 0.201}, {"cell line": "HCC-366", "relative viability": 0.0518}, {"cell line": "NCI-H1666", "relative viability": 0.351}, {"cell line": "NCI-H596", "relative viability": 0.261}, {"cell line": "NCI-H1395", "relative viability": 0.291}, {"cell line": "NCI-H2087", "relative viability": 0.151}, {"cell line": "NCI-H2342", "relative viability": 0.327}, {"cell line": "LK-2", "relative viability": 0.22}, {"cell line": "NCI-H358", "relative viability": 0.0831}, {"cell line": "SW 900", "relative viability": 0.18}, {"cell line": "NCI-H1793", "relative viability": 0.154}, {"cell line": "NCI-H1792", "relative viability": 0.416}, {"cell line": "NCI-H1944", "relative viability": 0.114}, {"cell line": "NCI-H1563", "relative viability": 0.211}, {"cell line": "NCI-H2170", "relative viability": 0.186}, {"cell line": "ABC-1", "relative viability": 0.228}, {"cell line": "SK-MES-1", "relative viability": 0.184}]}, {"compound": "O=C(Nc1cc(C(F)(F)F)cc(C(F)(F)F)c1)c1cc(Cl)ccc1O [IMD-0354] + O=C(CCCCCCC(=O)Nc1ccccc1)NO [Vorinostat] (partner 1 µM)", "assay": "relative viability (nuclei count vs DMSO), 5 days (fraction); higher = more cells survive", "conditions": "first compound 0.04 µM", "in_short": "as §1", "values": [{"cell line": "NCI-H522", "relative viability": 1.02}, {"cell line": "NCI-H727", "relative viability": 1.04}, {"cell line": "NCI-H1650", "relative viability": 0.541}, {"cell line": "NCI-H1993", "relative viability": 0.75}, {"cell line": "SK-LU-1", "relative viability": 0.796}, {"cell line": "NCI-H838", "relative viability": 0.719}]}]}
